{"source": "patent US20140287011A1", "about": "“ARTHROPOD PEST CONTROL COMPOSITION” (SUMITOMO CHEMICAL COMPANY, LIMITED, priority 2011, published 2014)", "origin": "cited, not measured here", "conditions": "water at 20° C."}
{"smiles": "CCOc1cc(C(C)(C)C)ccc1C1COC(c2c(F)cccc2F)=N1", "note": "(stereo not shown) [the present oxazole compound, 2-(2,6-difluorophenyl)-4-[4-(1,1-dimethylethyl)-2-ethoxyphenyl]-4,5-dihydrooxazole]", "values": [{"measurement": "solubility", "value": 75.4, "unit": "pg per 1 liter"}]}
